According to US4692448A, “Bis(arylpiperazinyl)sulfur compounds” (Boehringer Ingelheim Pharmaceuticals, Inc., priority 1984, dated 1987):
pIC50: −log10 of the molar value. Counter-ions that a name gives are not always drawn. Like-named read-outs stand apart in the source and are kept apart here.

Experiments:
[1] = system: histamine release from human leukocytes (basophils); experiment: Human basophil assay: inhibition of anti-IgE-induced (IgE-mediated) histamine release; type: cell-based; details: for pIC50: Leukocyte; for inhibition of histamine release in human basophils (in words): IgE-mediated, in vitro
Protocol: In the experiments reported by this example compounds in accordance with the invention are evaluated to determine their ability to inhibit the IgE-mediated release of histamine from sensitized peripheral leucocytes (basophils). Separation of leukocytes is accomplished by a modification of the method of L. Lichtenstein and A. Osler, J. Exp. Med. 120: 507 (1964). Heparinized human blood (80-100 ml) is mixed with 20 ml of saline (0.2%) containing 0.6 g of dextrose and 1.2 g of dextran in propylene centrifuge tubes. The mixture is kept at ambient temperature for 60-90 minutes to allow the separation of erythrocytes from the platelet-leukocyte-rich supernate. The supernate is removed and centrifuged for 8 minutes at 10×g in the cold. The leukocyte pellet is washed twice with Tris buffer and finally suspended in 150-180 ml Tris-ACM buffer at 1-2×10^6 cells/ml. The reaction is carried out in 12×75 mm plastic tubes at a total volume of […]. The reaction medium includes 0.05 ml rabbit anti-human IgE, 0.2 ml of the test compound in Tris-ACM buffer at concentrations ranging from 10-1000 μM, and 1.0 ml of the leukocyte suspension. The reaction mixture is incubated in a 37° C. shaking water bath for 60 minutes. Upon completion of the reaction, the tubes are centrifuged and the supernatants collected. The protein is removed from the supernatants by precipitation with 0.2 ml of 8% perchloric acid. Histamine release is measured by the automated fluorometric method of W Siraganian and W. Hook in Chapter 108, pages 808-821 of the Manual of Clinical Immunology, 2nd Edition, edited by R. Rose and H. Friedman, published by the American Society for Microbiology, Washington, D.C., 1980. Percent inhibition is calculated as follows: [formula] The concentration which causes a 50 percent inhibition (1C50) of histamine release is interpolated from a plot of percent inhibition versus the logarithm of drug concentration.

[2] = system: histamine release from basophils activated by ionophore A-23187; experiment: Human basophil assay: inhibition of histamine release induced by non-immunological ionophore A-23187; type: cell-based; details: 1000-fold test dosage range
Protocol: Separation of leukocytes is accomplished by a modification of the method of L. Lichtenstein and A. Osler, J. Exp. Med. 120: 507 (1964). Heparinized human blood (80-100 ml) is mixed with 20 ml of saline (0.2%) containing 0.6 g of dextrose and 1.2 g of dextran in propylene centrifuge tubes. The mixture is kept at ambient temperature for 60-90 minutes to allow the separation of erythrocytes from the platelet-leukocyte-rich supernate. The supernate is removed and centrifuged for 8 minutes at 10×g in the cold. The leukocyte pellet is washed twice with Tris buffer and finally suspended in 150-180 ml Tris-ACM buffer at 1-2×10^6 cells/ml.
The reaction is carried out in 12×75 mm plastic tubes at a total volume of 1.23 ml. […] The reaction mixture is incubated in a 37° C. shaking water bath for 60 minutes. Upon completion of the reaction, the tubes are centrifuged and the supernatants collected. The protein is removed from the supernatants by precipitation with 0.2 ml of 8% perchloric acid.
Histamine release is measured by the automated fluorometric method of W Siraganian and W. Hook in Chapter 108, pages 808-821 of the Manual of Clinical Immunology, 2nd Edition, edited by R. Rose and H. Friedman, published by the American Society for Microbiology, Washington, D.C., 1980. Percent inhibition is calculated as follows: [formula] […]

lipoxygenase pathway = experiment: Blocking the metabolic conversion of arachidonic acid in the lipoxygenase pathway; details: no method or data given
[3] = 1 h, human basophils, rabbit anti-human IgE, 37° C., 60 minutes, read-out: IN VITRO INHIBITION OF HISTAMINE RELEASE IC50

SMILES	pIC50 [1, 3]	further results
Clc1ccc(CN2CCN(CCCSSCCCN3CCN(Cc4ccc(Cl)cc4)CC3)CC2)cc1 [Example 1, 1,1'-(Dithiodi-3,1-propanediyl)bis[4-(4-chlorobenzyl)piperazine]]	5.70	–
Clc1ccc(CN2CCN(CCSSCCN3CCN(Cc4ccc(Cl)cc4)CC3)CC2)cc1 [Example 2, 1,1'-(dithiodi-2,1-ethanediyl)bis[4-(4-chlorobenzyl)piperazine]tetrahydrochloride]	5.62	pIC50 ([1]; Homo sapiens, anti-IgE, further repetition of testing, read-out: IC50 (histamine release), further repetition): 5.28; pIC50 ([1]; Homo sapiens, anti-IgE, range of concentrations up to the limits of its solubility, read-out: IC50 (histamine release)): 5.43; pIC50 [2]: 5.57; blocking the metabolic conversion of arachidonic acid in the lipoxygenase pathway (in words) (lipoxygenase pathway): effective in blocking
Cc1ccccc1CN1CCN(CCSSCCN2CCN(Cc3ccccc3C)CC2)CC1 [Example 3, 1,1'-(dithiodi-2,1-ethanediyl)bis[4-(2-methylbenzyl)piperazine]tetrahydrochloride]	4.82	–
Clc1ccc(CN2CCN(CCCSCCN3CCN(Cc4ccc(Cl)cc4)CC3)CC2)cc1 [Example 4, {2-[4-(4-chlorobenzyl)piperazin-1-yl)ethyl}{3-[4-(4-chlorobenzyl)piperazin-1-yl]propyl}sulfide tetrahydrochloride]	5.62	–
Clc1ccc(CN2CCN(CCCSCCCN3CCN(Cc4ccc(Cl)cc4)CC3)CC2)cc1 [Example 5, 1,1'-(thio-3,1-propanediyl) bis-[4-(4-chlorobenzyl)piperazine] tetrahydrochloride]	5.72	–
[O-][S+](CCCN1CCN(Cc2ccc(Cl)cc2)CC1)CCCN1CCN(Cc2ccc(Cl)cc2)CC1 [Example 6, 1,1'-(sulfinyl-3,1-propanediyl) bis[4-(4-chlorobenzyl)piperazine] tetrahydrochloride]	5.25	–

The next lines start with results.

pIC50 [1, 3]	SMILES	further results
5.47	O=S(=O)(CCCN1CCN(Cc2ccc(Cl)cc2)CC1)CCCN1CCN(Cc2ccc(Cl)cc2)CC1 [Example 7, 1,1'-(sulfonyl-3,1-propanediyl) bis[4-(4-chlorobenzyl)piperazine] tetrahydrochloride]	–
4.55	N#Cc1ccc(CN2CCN(CCSSCCN3CCN(Cc4ccc(C#N)cc4)CC3)CC2)cc1 [Example 8, 1,1'-(dithiodi-2,1-ethanediyl)bis[4-(4-cyanobenzyl)piperazine] tetrahydrochloride]	–
4.86	c1ccc(CN2CCN(CCCSSCCCN3CCN(Cc4ccccc4)CC3)CC2)cc1 [Example 9, 1,1'-(dithiodi-3,1-propanediyl)bis(4-benzylpiperazine) tetrahydrochloride]	–
< 3.00	Cl.Cl.Cl.Cl.Clc1ccc(CCN2CCN(CCCSSCCCN3CCN(CCc4ccc(Cl)cc4)CC3)CC2)cc1 [Example 10, 1,1'-(dithiodi-3,1-propanediyl)-bis [4-(4-chlorophenethyl)piperazine] tetrahydrochloride]	inhibition of histamine release in human basophils (in words) [1]: absence of observed activity
< 3.00	Clc1ccc(CN2CCCN(CCCSSCCCN3CCCN(Cc4ccc(Cl)cc4)CC3)CC2)cc1 [Example 11, 1,1'-(dithiodi-3,1-propanediyl)bis[4-(4-chlorobenzyl)homopiperizine] tetrahydrochloride]	inhibition of histamine release in human basophils (in words) [1]: absence of observed activity
5.33	Cc1ccc(CN2CCN(CCSSCCN3CCN(Cc4ccc(C)cc4)CC3)CC2)cc1 [Example 12, 1,1'-(dithiodi-2,1-ethanediyl)bis[4-(4-methylbenzyl)piperazine] tetrahydrochloride]	–
< 3.00	Cl.Cl.Cl.Cl.Clc1ccc(CCCN2CCN(CCSSCCN3CCN(CCCc4ccc(Cl)cc4)CC3)CC2)cc1 [Example 13, 1,1'-(dithiodi-2,1-ethanediyl)bis{4-[3-(4-chlorophenyl)propyl]piperazine} tetrahydrochloride]	inhibition of histamine release in human basophils (in words) [1]: absence of observed activity
